Values of other authors as cited in patent publication US20140023726A1, “POLYMORPHISMS PREDICTIVE OF PLATINUM-COORDINATING COMPLEX INDUCED OTOTOXICITY” (The University of British Columbia, priority 2006, published 2014).
Like-named read-outs stand apart in the source and are kept apart here.

N.N.[Cl][Pt][Cl] [cisplatin, trans-diaminedichloro-platinum(II)]
Permanent hearing loss, frequency in patients (children less than 5, standard doses of cisplatin): 48% | Permanent hearing loss, frequency in patients (patients receiving standard doses of cisplatin): 25%
